Experimental data taken from PubChem BioAssay (NCI).
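Method: 48-hour compound exposure of cells in 96-well plates, five concentrations, linear interpolation of endpoints. Here, GI50 denotes the concentration required for 50% inhibition of growth. TGI: concentration producing complete growth inhibition.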

Experiments:
Assay in all cases: DTP human tumour cell line panel, 48 h; in the data active means GI50 below about 0.43 µM; inactive means the rest
[1] = system: RXF 393 renal
[2] = system: SNB-19 CNS
[3] = system: HOP-92 NSCLC
[4] = system: U251 CNS
[5] = system: NCI-H226 lung
[6] = system: HT29 colon
[7] = system: KM12 colon
[8] = system: HS 578T breast
[9] = system: CAKI-1 renal
[10] = system: SF-295 CNS
[11] = system: IGROV1 ovarian
[12] = system: SK-OV-3 ovarian
[13] = system: SK-MEL-5 melanoma
[14] = system: HCT-116 colon
[15] = system: A549 NSCLC
[16] = system: HCT-15 colon
[17] = system: LOX IMVI melanoma
[18] = system: NCI-H23 lung
[19] = system: SF-268 CNS
[20] = system: UACC-257 melanoma
[21] = system: HCC-2998 colon
[22] = system: MCF7 breast
[23] = system: UACC-62 melanoma
[24] = system: NCI-H460 lung
[25] = system: PC-3 prostate
[26] = system: MOLT-4 leukemia
[27] = system: CCRF-CEM leukemia
[28] = system: T-47D breast
[29] = system: RPMI-8226 leukemia
[30] = system: MALME-3M melanoma
[31] = system: SK-MEL-2 melanoma
[32] = system: SR leukemia
[33] = system: OVCAR-4 ovarian
[34] = system: MDA-MB-231 breast
[35] = system: 786-0 renal
[36] = system: OVCAR-5 ovarian
[37] = system: OVCAR-3 ovarian
[38] = system: SK-MEL-28 melanoma
[39] = system: NCI/ADR-RES ovarian
[40] = system: M14 melanoma
[41] = system: HL-60(TB) leukemia
[42] = system: SNB-75 CNS
[43] = system: ACHN renal
[44] = system: NCI-H522 lung
[45] = system: SF-539 CNS
[46] = system: COLO 205 colon
[47] = system: SN12C renal
[48] = system: UO-31 renal
[49] = system: HOP-62 NSCLC
[50] = system: BT-549 breast
[51] = system: SW-620 colon
[52] = system: K-562 leukemia
[53] = system: A498 renal
[54] = system: OVCAR-8 ovarian
[55] = system: MDA-MB-435
[56] = system: TK-10 renal
[57] = system: DU-145 prostate

CC(C)C[C@H](NC(=O)[C@@H](O)[C@H](N)Cc1ccccc1)C(=O)O
> 100 µM: TGI [1] | TGI [2] | TGI [3] | TGI [4] | TGI [5] | TGI [6] | TGI [7] | TGI [8] | TGI [9] | TGI [10] | TGI [11] | TGI [12] | TGI [13] | TGI [14] | TGI [15] | TGI [16] | TGI [17] | TGI [18] | TGI [19] | TGI [20] | TGI [21] | TGI [22] | TGI [23] | TGI [24] | TGI [25] | TGI [26] | TGI [27] | TGI [28] | TGI [29] | TGI [30] | TGI [31] | TGI [32] | TGI [33] | TGI [34] | TGI [35] | TGI [36] | TGI [37] | TGI [38] | TGI [39] | TGI [40] | TGI [41] | TGI [42] | TGI [43] | TGI [44] | TGI [45] | TGI [46] | TGI [47] | TGI [48] | TGI [49] | TGI [50] | TGI [51] | TGI [52] | TGI [53] | TGI [54] | TGI [55] | TGI [56] | TGI [57]
inactive: GI50 [44] > 100 µM | GI50 [48] > 100 µM | GI50 [50] > 100 µM | GI50 [53] > 100 µM

CC(C)(C)c1ccc(S(=O)(=O)N[C@H]2CC[C@H]3[C@@H]4CCc5cc(O)ccc5[C@H]4CC[C@]23C)cc1
3.16 µM: TGI [10]
3.05 µM: TGI [13]
6.04 µM: TGI [32]
inactive: GI50 [1] 1.61 µM | GI50 [2] 3.54 µM | GI50 [3] 1.53 µM | GI50 [4] 1.89 µM | GI50 [5] 1.75 µM | GI50 [6] 1.96 µM | GI50 [7] 1.93 µM | GI50 [8] 2.39 µM | GI50 [9] 2.28 µM | GI50 [10] 1.66 µM | GI50 [11] 3.74 µM | GI50 [12] 3.12 µM | GI50 [13] 1.65 µM | GI50 [14] 1.63 µM | GI50 [15] 2.14 µM | GI50 [17] 1.77 µM | GI50 [18] 2.03 µM | GI50 [19] 3.94 µM | GI50 [20] 2.45 µM | GI50 [21] 2.8 µM | GI50 [22] 1.74 µM | GI50 [23] 2.16 µM | GI50 [24] 1.98 µM | GI50 [25] 2.1 µM | GI50 [26] 2.46 µM | GI50 [27] 2.63 µM | GI50 [28] 2.59 µM | GI50 [29] 1.88 µM | GI50 [30] 2.78 µM | GI50 [31] 2.45 µM | GI50 [32] 2.17 µM | GI50 [33] 2.91 µM | GI50 [34] 1.91 µM | GI50 [35] 2.19 µM | GI50 [36] 2.08 µM | GI50 [37] 2.09 µM | GI50 [38] 1.71 µM | GI50 [39] 2.23 µM | GI50 [40] 2.02 µM | GI50 [41] 2.31 µM | GI50 [42] 2.08 µM | GI50 [43] 2.28 µM | GI50 [44] 2.5 µM | GI50 [45] 1.7 µM | GI50 [46] 1.85 µM | GI50 [47] 1.76 µM | GI50 [48] 1.81 µM | GI50 [49] 2.07 µM | GI50 [50] 1.75 µM | GI50 [51] 3.18 µM | GI50 [52] 2.46 µM | GI50 [53] 1.31 µM | GI50 [54] 2.02 µM | GI50 [55] 1.79 µM | GI50 [56] 3.79 µM | GI50 [57] 3.93 µM
3.87 µM: TGI [7]
3.57 µM: TGI [22]
7.57 µM: TGI [25]
3.98 µM: TGI [49]
7.13 µM: TGI [30] | TGI [44]
3.14 µM: TGI [45]
9.53 µM: TGI [26]
12.9 µM: TGI [57]
4.51 µM: TGI [29]
4.04 µM: TGI [40]
6.11 µM: TGI [41]
4.2 µM: TGI [3] | TGI [36]
11.8 µM: TGI [51]
6.26 µM: TGI [9]
4.13 µM: TGI [34]
3.46 µM: TGI [1]
4.28 µM: TGI [18]
10.8 µM: TGI [11]
5.21 µM: TGI [39]
4.45 µM: TGI [4]
3.17 µM: TGI [17]
12.1 µM: TGI [56]
6.98 µM: TGI [8]
7.1 µM: TGI [21]
5.67 µM: TGI [43]
5.02 µM: TGI [35]
4.11 µM: TGI [48]
3.32 µM: TGI [50]
3.33 µM: TGI [55]
3.51 µM: TGI [5]
3.18 µM: TGI [38]
7.24 µM: TGI [15]
4.89 µM: TGI [31]
2.72 µM: TGI [53]
8.76 µM: TGI [28]
3.95 µM: TGI [37]
8 µM: TGI [12]
8.64 µM: TGI [52]
3.55 µM: TGI [47]
14 µM: TGI [19]
4.16 µM: TGI [24]
2.98 µM: TGI [14]
3.74 µM: TGI [6]
10.2 µM: TGI [33]
7.79 µM: TGI [27]
6.78 µM: TGI [20]
4.59 µM: TGI [54]
5.91 µM: TGI [23]
6.38 µM: TGI [42]
18 µM: TGI [2]
3.3 µM: TGI [46]
